Article PMC12655351, “Synthesis and Anticancer Activity Evaluation of New 5-((5-Nitrofuran-2-yl)allylidene)-2-thioxo-4-thiazolidinones” (Pharmaceuticals, 2025)

Columns and labels:
T-47D = experiment: cells; settings: Homo sapiens, T47D, 48 h; for GI50: T-47D
TK-10 [1] = experiment: cells; settings: Homo sapiens, TK-10, 48 h; for CC50: read-out: LC50, TK-10, 48 h
[2] = tested on: Non-small cell lung cancer; experiment: cells; settings: Homo sapiens; for GI50: read-out: MG_MID GI50; for CC50: read-out: MG_MID LC50
HL-60(TB) = experiment: NCI-60 SRB screen; settings: for TGI / GI50: HL-60(TB), 48 h; for GI50 / CC50: Homo sapiens, HL-60, 48 h; for CC50: read-out: LC50, HL-60(TB), 48 h
TK-10 [3] = settings: TK-10, 48 h
DLD-1 = experiment: MTT assay; format: cell-based; settings: Homo sapiens; DLD-1, 24 h of treatment
Method: (§1) The NCI-60 screening protocol utilizes the sulforhodamine B (SRB) assay following 48 h of compound exposure. […] The MTT assay was performed on eleven cancer cell lines: human breast cancer (MDA-MB-231, MCF-7, HCC 1954), human gastric cancer (AGS), human colorectal adenocarcinoma (HT-29, DLD-1, HCT 116), human neuroblastoma (SH SY5Y), and human leukemia (JURKAT, RMPI 8866, K-562) cell lines. The study was conducted in triplicate at the following seven concentrations: 0.62, 1.25, 2.5, 5, 10, 20, and 40 μM.
(§2) The selected cell lines were seeded into 96-well plates and cultured in accordance with the previously described methodology. Then, the cells were treated with all tested compounds and DOX at concentrations of 0.625, 1.25, 2.5, 5.0, 10.0, 20.0, and 40.0 μM for 24 h. A solution of 3-(4,5-dimethyl-2-thiazolyl)-2,5-diphenyl-2H-tetrazolium bromide (Sigma-Aldrich, St. Louis, MO, USA) in phosphate-buffered saline without calcium and magnesium (Corning, Kennebunk, ME, USA) at a concentration of 5 mg/mL was used to carry out MTT assay. After incubation, 20 μL of the prepared MTT solution was added, and then the cells were incubated at 37 °C for two hours. Afterwards, the cells were lysed using 100 μL of lysing buffer (comprising 25 mM HCl, 2% acetic acid, 3% DMF, and 5% SDS, with a pH of 4.7). The absorbance was determined at a wavelength of 570 nm using an Absorbance 96 microplate reader (Byonoy GmbH, Hamburg, Germany).

MDA-MB-231 = experiment: MTT assay; format: cell-based; settings: Homo sapiens; MDA-MB-231, 24 h of treatment
Method: as §1, §2

MCF-7 = experiment: MTT assay; format: cell-based; settings: Homo sapiens, MCF7; MCF-7, 24 h of treatment
Method: as §1, §2

RPMI 8866 = experiment: MTT assay; format: cell-based; settings: Homo sapiens; RPMI 8866, 24 h of treatment
Method: as §1, §2

AGS = experiment: MTT assay; format: cell-based; settings: Homo sapiens, 24 h of treatment
Method: as §1, §2

Jurkat = experiment: MTT assay; format: cell-based; settings: Homo sapiens, 24 h of treatment
Method: as §1, §2

HCT-116 = experiment: MTT assay; format: cell-based; settings: Homo sapiens; HCT-116, 24 h of treatment
Method: as §1, §2

HT-29 = experiment: MTT assay; format: cell-based; settings: Homo sapiens; HT-29, 24 h of treatment
Method: as §1, §2

HCC-1954 = experiment: MTT assay; format: cell-based; settings: Homo sapiens, HCC1954; HCC-1954, 24 h of treatment
Method: as §1, §2

SH SY5Y = experiment: MTT assay; format: cell-based; settings: Homo sapiens, 24 h of treatment
Method: as §1, §2

K562 = experiment: MTT assay; format: cell-based; settings: Homo sapiens; K562, 24 h of treatment
Method: as §1, §2

SK-MEL-28 = experiment: cells; settings: Homo sapiens, SK-MEL-28, 48 h; for CC50: read-out: LC50, SK-MEL-28, 48 h
HOP-92 = experiment: NCI-60 SRB screen; settings: HOP-92, 48 h; for GI50 / CC50: Homo sapiens; for CC50: read-out: LC50, HOP-92, 48 h
CCRF-CEM [4] = settings: 48 h
MOLT-4 [5] = experiment: cells; settings: Homo sapiens, MOLT-4, 48 h; for CC50: read-out: LC50, MOLT-4, 48 h
DU-145 = settings: for TGI: DU-145, 48 h
786-0 = settings: 786-0, 48 h
MOLT-4 [6] = settings: MOLT-4, 48 h
RPMI-8226 = settings: RPMI-8226, 48 h
NCI/ADR-RES = experiment: cells; settings: Homo sapiens, 48 h; for CC50: read-out: LC50, NCI/ADR-RES, 48 h
OVCAR-5 = experiment: NCI-60 SRB screen; settings: OVCAR-5, 48 h; for GI50: Homo sapiens
CCRF-CEM [7] = experiment: cells; settings: Homo sapiens, 48 h
EKVX = experiment: NCI-60 SRB screen; settings: 48 h; for GI50 / CC50: Homo sapiens; for CC50: read-out: LC50, EKVX, 48 h
CNS cancer = experiment: cells; settings: Homo sapiens; for GI50: read-out: MG_MID GI50; for CC50: read-out: MG_MID LC50
SK-MEL-2 = experiment: NCI-60 SRB screen; settings: SK-MEL-2, 48 h; for GI50 / CC50: Homo sapiens; for CC50: read-out: LC50, SK-MEL-2, 48 h
SW-620 = experiment: NCI-60 SRB screen; settings: SW-620, 48 h; for GI50: Homo sapiens

`CC(C)C(C(=O)O)N1C(=O)/C(=C/C=C/c2ccc([N+](=O)[O-])o2)SC1=S` (stereo not drawn) [5b, 3-Methyl-2-((Z)-5-((E)-3-(5-nitrofuran-2-yl)allylidene)-4-oxo-2-thioxothiazolidin-3-yl)butanoic acid] was tested, and the GI50 (T-47D) was 1.12 µM, the GI50 (TK-10 [1]) was 2.24 µM and the CC50 (TK-10 [1]) was 7.23 µM. The GI50 [2] was 1.8 µM, the CC50 [2] was 20.1 µM and the TGI (HL-60(TB)) was 3.87 µM. It also gave a GI50 (HL-60(TB)) of 1.2 µM, a CC50 (HL-60(TB)) of over 100 µM and a TGI (TK-10 [3]) of 4.03 µM. It also gave an IC50 (DLD-1) of 3.86 µM, an IC50 (MDA-MB-231) of 9.12 µM and an IC50 (MCF-7) of 3.32 µM. It also gave an IC50 (RPMI 8866) of 13.5 µM, an IC50 (AGS) of 2.65 µM and an IC50 (Jurkat) of 3.73 µM. For the same molecule, the IC50 (HCT-116) was 4.21 µM, the IC50 (HT-29) was 7.74 µM and the IC50 (HCC-1954) was 6.42 µM. The IC50 (SH SY5Y) was 9.37 µM, the IC50 (K562) was 16.1 µM and the GI50 (SK-MEL-28) was 1.46 µM. It also gave a CC50 (SK-MEL-28) of 5.48 µM, a TGI (HOP-92) of 4.17 µM and a GI50 (HOP-92) of 2.13 µM. The CC50 (HOP-92) was 8.15 µM, the TGI (CCRF-CEM [4]) was 1.81 µM and the GI50 (MOLT-4 [5]) was 2.34 µM. The CC50 (MOLT-4 [5]) was over 100 µM, the “growth GP” value (DU-145; DU-145, 10 μM, 48 h) was -98.94% and the TGI (DU-145) was 2.82 µM. It also gave a TGI (786-0) of 3.70 µM, a TGI (MOLT-4 [6]) of 10.7 µM and a TGI (RPMI-8226) of 1.49 µM. The GI50 (NCI/ADR-RES) was 1.47 µM, the CC50 (NCI/ADR-RES) was 17.5 µM and the GI50 (OVCAR-5) was 2.13 µM. For the same molecule, the TGI (OVCAR-5) was 3.83 µM, the GI50 (CCRF-CEM [7]) was 0.36 µM and the TGI (EKVX) was 4.80 µM. It also gave a GI50 (EKVX) of 2.01 µM, a CC50 (EKVX) of 13.9 µM and a GI50 (CNS cancer) of 1.28 µM. It also gave a CC50 (CNS cancer) of 5.93 µM, a GI50 (SK-MEL-2) of 1.52 µM and a CC50 (SK-MEL-2) of 6.02 µM. It also gave a TGI (SK-MEL-2) of 3.03 µM, a GI50 (SW-620) of 0.59 µM and a TGI (SW-620) of 2.55 µM.
Molecule `CCCC(C(=O)O)N1C(=O)/C(=C/C=C/c2ccc([N+](=O)[O-])o2)SC1=S` (stereo not drawn) [4b, 2-((Z)-5-((E)-3-(5-Nitrofuran-2-yl)allylidene)-4-oxo-2-thioxothiazolidin-3-yl)pentanoic acid] has a GI50 (T-47D) of 2.2 µM, a CC50 (T-47D; read-out: LC50) of over 100 µM and a GI50 (TK-10 [1]) of 3.27 µM. The CC50 (TK-10 [1]) was 27.6 µM, the GI50 [2] was 2.37 µM and the CC50 [2] was 29.3 µM. For the same molecule, the TGI (HL-60(TB)) was 6.43 µM, the GI50 (HL-60(TB)) was 2.17 µM and the CC50 (HL-60(TB)) was over 100 µM. For the same molecule, the TGI (TK-10 [3]) was 8.16 µM, the IC50 (DLD-1) was 7.61 µM and the IC50 (MDA-MB-231) was 17.5 µM. It also gave an IC50 (MCF-7) of 5.87 µM, an IC50 (RPMI 8866) of 19.6 µM and an IC50 (AGS) of 6.54 µM. It also gave an IC50 (Jurkat) of 5.85 µM, an IC50 (HCT-116) of 7.89 µM and an IC50 (HT-29) of 13.2 µM. It also gave an IC50 (HCC-1954) of 7.07 µM, an IC50 (SH SY5Y) of 16.3 µM and an IC50 (K562) of 16.1 µM. For the same molecule, the GI50 (SK-MEL-28) was 1.76 µM, the CC50 (SK-MEL-28) was 6.98 µM and the TGI (HOP-92) was 7.69 µM. The GI50 (HOP-92) was 2.63 µM, the CC50 (HOP-92) was 31.9 µM and the TGI (CCRF-CEM [4]) was 7.26 µM. For the same molecule, the GI50 (MOLT-4 [5]) was 3.3 µM, the CC50 (MOLT-4 [5]) was over 100 µM and the TGI (DU-145) was 6.42 µM. It also gave a TGI (786-0) of 12.6 µM, a TGI (MOLT-4 [6]) of 14.4 µM and a TGI (RPMI-8226) of 5.11 µM. The GI50 (NCI/ADR-RES) was 2.03 µM, the CC50 (NCI/ADR-RES) was 21.4 µM and the GI50 (OVCAR-5) was 1.89 µM. For the same molecule, the TGI (OVCAR-5) was 4.32 µM, the GI50 (CCRF-CEM [7]) was 2.27 µM and the TGI (EKVX) was 7.77 µM. For the same molecule, the GI50 (EKVX) was 2.53 µM, the CC50 (EKVX) was 27.7 µM and the GI50 (CNS cancer) was 1.93 µM. The CC50 (CNS cancer) was 11.6 µM, the GI50 (SK-MEL-2) was 1.53 µM and the CC50 (SK-MEL-2) was 5.89 µM. For the same molecule, the TGI (SK-MEL-2) was 3.00 µM, the GI50 (SW-620) was 1.55 µM and the TGI (SW-620) was 3.08 µM.
